Earlier results, collected in patent publication US7037523B2, “Controlled release compositions for macrolide antimicrobial agents” (Wockhardt Limited, priority 2001, dated 2006).

Tests used:
[1] = normal gastric pH of 1.0–2.0

CC[C@H]1OC(=O)[C@H](C)[C@@H](O[C@H]2C[C@@](C)(OC)[C@@H](O)[C@H](C)O2)[C@H](C)[C@@H](O[C@@H]2O[C@H](C)C[C@H](N(C)C)[C@H]2O)[C@](C)(OC)C[C@@H](C)C(=O)[C@H](C)[C@@H](O)[C@]1(C)O [Clarithromycin]
degradation in acidic medium [1]: degrades rapidly | solubility in water: practically insoluble
